Source: ChEMBL document CHEMBL1156337, “Synthesis and evaluation of novel benzothiazole derivatives based on the bithiophene structure as potential radiotracers for beta-amyloid plaques in Alzheimer's disease” (Bioorg Med Chem, 2010)
pKi: −log10 of the molar value. Blank lines part the entries; values can stand above or below the compound they belong to. Activity calls are given as the source filed them. No cut-off for these calls is given here.

Key:
[1] = organism: Mus musculus; assay: Binding affinity to beta amyloid plaques in brain sections of TgC57 transgenic mouse transfected with APP and PS1 double mutant after 30 mins by autoradiography in the presence of thioflavin-T; type: tissue-based; settings: tested as the 125I-labelled form
[2] = organism: Mus musculus; assay: Binding affinity to beta amyloid plaques in brain sections of TgC57 transgenic mouse transfected with APP and PS1 double mutant after 10 mins using thioflavin-S stain; type: tissue-based
[3] = Displacement of [125I]TZDM from amyloid beta (1 to 40) aggregates after 2 hrs
[4] = organism: Mus musculus; assay: Binding affinity to beta amyloid plaques in brain sections of TgC57 transgenic mouse transfected with APP and PS1 double mutant after 30 mins by autoradiography; type: tissue-based; settings: tested as the 125I-labelled form
[5] = Displacement of [125I]TZDM from amyloid beta (1 to 42) aggregates after 2 hrs
[6] = test system: Lung; assay: Biodistribution in lung of Kunming mouse at 1 uCi, iv after 2 mins by gamma counting; type: ADME, organism-based; settings: in vivo
[7] = test system: Kidney; assay: Biodistribution in kidney of Kunming mouse at 1 uCi, iv after 240 mins by gamma counting; type: ADME, organism-based; settings: in vivo, 4 h
[8] = test system: Heart; assay: Biodistribution in heart of Kunming mouse at 1 uCi, iv after 120 mins by gamma counting; type: ADME, organism-based; settings: in vivo, 2 h
[9] = test system: Spleen; assay: Biodistribution in spleen of Kunming mouse at 1 uCi, iv after 120 mins by gamma counting; type: ADME, organism-based; settings: in vivo, 2 h
[10] = test system: Brain; assay: Biodistribution in brain of Kunming mouse at 1 uCi, iv after 60 mins by gamma counting; type: ADME, organism-based; settings: in vivo, 1 h
[11] = test system: Blood; assay: Biodistribution in blood of Kunming mouse at 1 uCi, iv after 120 mins by gamma counting; type: ADME, organism-based; settings: in vivo, 2 h
[12] = test system: Kidney; assay: Biodistribution in kidney of Kunming mouse at 1 uCi, iv after 30 mins by gamma counting; type: ADME, organism-based; settings: in vivo, 0.5 h
[13] = test system: Muscle tissue; assay: Biodistribution in muscle of Kunming mouse at 1 uCi, iv after 120 mins by gamma counting; type: ADME, organism-based; settings: in vivo, 2 h
[14] = test system: Blood; assay: Biodistribution in blood of Kunming mouse at 1 uCi, iv after 2 mins by gamma counting; type: ADME, organism-based; settings: in vivo
[15] = test system: Spleen; assay: Biodistribution in spleen of Kunming mouse at 1 uCi, iv after 30 mins by gamma counting; type: ADME, organism-based; settings: in vivo, 0.5 h
[16] = test system: Brain; assay: Biodistribution in brain of Kunming mouse at 1 uCi, iv after 2 mins by gamma counting; type: ADME, organism-based; settings: in vivo
[17] = test system: Spleen; assay: Biodistribution in spleen of Kunming mouse at 1 uCi, iv after 240 mins by gamma counting; type: ADME, organism-based; settings: in vivo, 4 h
[18] = test system: Lung; assay: Biodistribution in lung of Kunming mouse at 1 uCi, iv after 120 mins by gamma counting; type: ADME, organism-based; settings: in vivo, 2 h
[19] = test system: Liver; assay: Biodistribution in liver of Kunming mouse at 1 uCi, iv after 2 mins by gamma counting; type: ADME, organism-based; settings: in vivo
[20] = test system: Stomach; assay: Biodistribution in stomach of Kunming mouse at 1 uCi, iv after 60 mins by gamma counting measured per organ; type: ADME, organism-based; settings: in vivo, 1 h
[21] = test system: Lung; assay: Biodistribution in lung of Kunming mouse at 1 uCi, iv after 60 mins by gamma counting; type: ADME, organism-based; settings: in vivo, 1 h
[22] = test system: Lung; assay: Biodistribution in lung of Kunming mouse at 1 uCi, iv after 240 mins by gamma counting; type: ADME, organism-based; settings: in vivo, 4 h
[23] = test system: Muscle tissue; assay: Biodistribution in muscle of Kunming mouse at 1 uCi, iv after 240 mins by gamma counting; type: ADME, organism-based; settings: in vivo, 4 h
[24] = test system: Heart; assay: Biodistribution in heart of Kunming mouse at 1 uCi, iv after 240 mins by gamma counting; type: ADME, organism-based; settings: in vivo, 4 h
[25] = test system: Blood; assay: Biodistribution in blood of Kunming mouse at 1 uCi, iv after 30 mins by gamma counting; type: ADME, organism-based; settings: in vivo, 0.5 h
[26] = test system: Liver; assay: Biodistribution in liver of Kunming mouse at 1 uCi, iv after 120 mins by gamma counting; type: ADME, organism-based; settings: in vivo, 2 h
[27] = test system: Brain; assay: Biodistribution in brain of Kunming mouse at 1 uCi, iv after 240 mins by gamma counting; type: ADME, organism-based; settings: in vivo, 4 h
[28] = test system: Spleen; assay: Biodistribution in spleen of Kunming mouse at 1 uCi, iv after 2 mins by gamma counting; type: ADME, organism-based; settings: in vivo
[29] = test system: Spleen; assay: Biodistribution in spleen of Kunming mouse at 1 uCi, iv after 60 mins by gamma counting; type: ADME, organism-based; settings: in vivo, 1 h
[30] = test system: Heart; assay: Biodistribution in heart of Kunming mouse at 1 uCi, iv after 2 mins by gamma counting; type: ADME, organism-based; settings: in vivo
[31] = test system: Stomach; assay: Biodistribution in stomach of Kunming mouse at 1 uCi, iv after 30 mins by gamma counting measured per organ; type: ADME, organism-based; settings: in vivo, 0.5 h
[32] = test system: Muscle tissue; assay: Biodistribution in muscle of Kunming mouse at 1 uCi, iv after 60 mins by gamma counting; type: ADME, organism-based; settings: in vivo, 1 h
[33] = test system: Muscle tissue; assay: Biodistribution in muscle of Kunming mouse at 1 uCi, iv after 30 mins by gamma counting; type: ADME, organism-based; settings: in vivo, 0.5 h
[34] = test system: Kidney; assay: Biodistribution in kidney of Kunming mouse at 1 uCi, iv after 2 mins by gamma counting; type: ADME, organism-based; settings: in vivo
[35] = test system: Kidney; assay: Biodistribution in kidney of Kunming mouse at 1 uCi, iv after 60 mins by gamma counting; type: ADME, organism-based; settings: in vivo, 1 h
[36] = test system: Lung; assay: Biodistribution in lung of Kunming mouse at 1 uCi, iv after 30 mins by gamma counting; type: ADME, organism-based; settings: in vivo, 0.5 h
[37] = test system: Kidney; assay: Biodistribution in kidney of Kunming mouse at 1 uCi, iv after 120 mins by gamma counting; type: ADME, organism-based; settings: in vivo, 2 h
[38] = test system: Heart; assay: Biodistribution in heart of Kunming mouse at 1 uCi, iv after 30 mins by gamma counting; type: ADME, organism-based; settings: in vivo, 0.5 h
[39] = test system: Blood; assay: Biodistribution in blood of Kunming mouse at 1 uCi, iv after 60 mins by gamma counting; type: ADME, organism-based; settings: in vivo, 1 h
[40] = test system: Heart; assay: Biodistribution in heart of Kunming mouse at 1 uCi, iv after 60 mins by gamma counting; type: ADME, organism-based; settings: in vivo, 1 h
[41] = test system: Stomach; assay: Biodistribution in stomach of Kunming mouse at 1 uCi, iv after 2 mins by gamma counting measured per organ; type: ADME, organism-based; settings: in vivo
[42] = test system: Brain; assay: Biodistribution in brain of Kunming mouse at 1 uCi, iv after 120 mins by gamma counting; type: ADME, organism-based; settings: in vivo, 2 h
[43] = test system: Liver; assay: Biodistribution in liver of Kunming mouse at 1 uCi, iv after 240 mins by gamma counting; type: ADME, organism-based; settings: in vivo, 4 h
[44] = Partition coefficient, log D in n-octanol/0.05 M phosphate buffer at pH 7.4; type: physicochemical
[45] = test system: Muscle tissue; assay: Biodistribution in muscle of Kunming mouse at 1 uCi, iv after 2 mins by gamma counting; type: ADME, organism-based; settings: in vivo
[46] = test system: Stomach; assay: Biodistribution in stomach of Kunming mouse at 1 uCi, iv after 240 mins by gamma counting measured per organ; type: ADME, organism-based; settings: in vivo, 4 h
[47] = test system: Blood; assay: Biodistribution in blood of Kunming mouse at 1 uCi, iv after 240 mins by gamma counting; type: ADME, organism-based; settings: in vivo, 4 h
[48] = test system: Stomach; assay: Biodistribution in stomach of Kunming mouse at 1 uCi, iv after 120 mins by gamma counting measured per organ; type: ADME, organism-based; settings: in vivo, 2 h
[49] = test system: Liver; assay: Biodistribution in liver of Kunming mouse at 1 uCi, iv after 60 mins by gamma counting; type: ADME, organism-based; settings: in vivo, 1 h
[50] = test system: Brain; assay: Biodistribution in brain of Kunming mouse at 1 uCi, iv after 30 mins by gamma counting; type: ADME, organism-based; settings: in vivo, 0.5 h
[51] = test system: Liver; assay: Biodistribution in liver of Kunming mouse at 1 uCi, iv after 30 mins by gamma counting; type: ADME, organism-based; settings: in vivo, 0.5 h
[52] = test system: Plasma; assay: Metabolic stability in mouse plasma assessed as deiodination after 2 hrs by HPLC analysis; type: ADME, cell-free

Activity [1]: inactive | Activity [2]: Active | pKi [3]: 9.51 | Activity [4]: Active | pKi [5]: 9.60
SMILES: Ic1ccc2nc(-c3ccc(-c4cccs4)s3)sc2c1

Drug uptake [6]: 17.51 % ID/g | Drug uptake [7]: 5.76 % ID/g | Drug uptake [8]: 1.5 % ID/g | Drug uptake [9]: 3.5 % ID/g | Drug uptake [10]: 0.53 % ID/g | Drug uptake [11]: 1.76 % ID/g | Drug uptake [12]: 7.22 % ID/g | Drug uptake [13]: 1.23 % ID/g | Drug uptake [14]: 9.02 % ID/g | Drug uptake [15]: 6.78 % ID/g | Drug uptake [16]: 3.42 % ID/g | Drug uptake [17]: 2.07 % ID/g | Drug uptake [18]: 5.76 % ID/g | Drug uptake [19]: 53.64 % ID/g | Drug uptake [20]: 4.05 %ID | Drug uptake [21]: 8.01 % ID/g | Drug uptake [22]: 3.72 % ID/g | Drug uptake [23]: 0.87 % ID/g | Drug uptake [24]: 1.31 % ID/g | Drug uptake [25]: 2.12 % ID/g | Drug uptake [26]: 22.47 % ID/g | Drug uptake [27]: 0.5 % ID/g | Drug uptake [28]: 12.75 % ID/g | Drug uptake [29]: 8.61 % ID/g | Drug uptake [30]: 4.39 % ID/g | Drug uptake [31]: 2.47 %ID | Drug uptake [32]: 1.47 % ID/g | Drug uptake [33]: 1.01 % ID/g | Drug uptake [34]: 4 % ID/g | Drug uptake [35]: 8.52 % ID/g | Drug uptake [36]: 8.04 % ID/g | Drug uptake [37]: 7.33 % ID/g | Drug uptake [38]: 2.49 % ID/g | Drug uptake [39]: 1.96 % ID/g | Drug uptake [40]: 2.65 % ID/g | Drug uptake [41]: 0.39 %ID | Drug uptake [42]: 0.51 % ID/g | Drug uptake [43]: 13.82 % ID/g | logD [44]: 3.65 | Drug uptake [45]: 0.65 % ID/g | Drug uptake [46]: 3.24 %ID | Drug uptake [47]: 1.36 % ID/g | Drug uptake [48]: 4.39 %ID | Drug uptake [49]: 29.12 % ID/g | Drug uptake [50]: 1.08 % ID/g | Drug uptake [51]: 39.81 % ID/g
SMILES: [125I]c1ccc2nc(-c3ccc(-c4cccs4)s3)sc2c1

Drug uptake [6]: 43.6 % ID/g | Drug uptake [7]: 4.53 % ID/g | Drug uptake [8]: 3.48 % ID/g | Drug uptake [9]: 4.92 % ID/g | Drug uptake [10]: 0.77 % ID/g | Drug uptake [11]: 6.62 % ID/g | Drug uptake [12]: 6.49 % ID/g | Drug uptake [13]: 2.46 % ID/g | Drug uptake [14]: 23.34 % ID/g | Drug uptake [15]: 7.11 % ID/g | Drug uptake [16]: 0.87 % ID/g | Drug uptake [17]: 4.49 % ID/g | Drug uptake [18]: 7.7 % ID/g | Drug uptake [19]: 35.25 % ID/g | Drug uptake [20]: 20.24 %ID | Drug uptake [21]: 8.64 % ID/g | Drug uptake [22]: 6.12 % ID/g | Drug uptake [23]: 1.95 % ID/g | Drug uptake [24]: 2.5 % ID/g | Drug uptake [25]: 6.55 % ID/g | Drug uptake [26]: 4.33 % ID/g | Drug uptake [27]: 0.53 % ID/g | Drug uptake [28]: 19.04 % ID/g | Drug uptake [29]: 6.24 % ID/g | Drug uptake [30]: 16.13 % ID/g | Drug uptake [31]: 15.84 %ID | Drug uptake [32]: 3.56 % ID/g | Drug uptake [33]: 3.42 % ID/g | Drug uptake [34]: 14.3 % ID/g | Drug uptake [35]: 6.28 % ID/g | Drug uptake [36]: 10.28 % ID/g | Drug uptake [37]: 5.67 % ID/g | Drug uptake [38]: 5.94 % ID/g | Drug uptake [39]: 6.58 % ID/g | Drug uptake [40]: 4.74 % ID/g | Drug uptake [41]: 1.31 %ID | Drug uptake [42]: 0.68 % ID/g | Drug uptake [43]: 3.23 % ID/g | Stability [52]: Stable | logD [44]: 3.27 | Drug uptake [45]: 2.73 % ID/g | Drug uptake [46]: 19.37 %ID | Drug uptake [47]: 5.05 % ID/g | Drug uptake [48]: 33.95 %ID | Drug uptake [49]: 5.76 % ID/g | Drug uptake [50]: 0.64 % ID/g | Drug uptake [51]: 6.98 % ID/g
SMILES: COc1ccc2nc(-c3ccc(-c4ccc([125I])s4)s3)sc2c1
